Six compounds from patent US5814627A, “3, 5-disubstituted and 3, 4, 5-trisubstituted 2-isoxazolines and isoxazoles, process for their preparation and their use as pharmaceuticals” (Hoechst Aktienegesellschaft, priority 1994, dated 1998) can be followed below.

Experiment [1] deals with PAF-induced asthma attack. Description: Test 7: antiasthmatic effect, PAF-induced asthma attack. Format: in vivo. To be noted: Cavia porcellus; i.d., 15 minutes before PAF; guinea pig. On the procedure:
Test 7: Testing for antiasthmatic effect
Anesthetized guinea pigs, which were cannulated in the jugular vein to allow injection of the PAF, were used for testing for antiasthmatic effect. The test preparations were also administered intravenously (i.v.), 5 min before PAF administration, into the blood stream through the same venous cannula, or else administered intraduodenally (i.d.), 15 minutes before the PAF, through an opening in the duodenum which had been installed and cannulated surgically. The bronchial width was recorded in an overflow pneumonogram before and after administering the preparation. Evaluation: ED50 in mg/kg i.d. as compared with the PAF-induced asthma attack.

The subject of experiment [2] is polymorphonuclear leucocytes (PMNL). Description: Test 1: Release of proteolytic activity from human PMNL. In kind it is cell-based. To be noted: Homo sapiens, PMNL, read-out: Test 1 residual activity (release of proteolytic activity), percent of control. The method, then:
Isolation of polymorphonuclear leucocytes (PMNL) from human peripheral blood for carrying out tests 1 and 2 10 ml of human blood were diluted with 10 ml of HBSS (Serva) and underlaid with 15 ml of Lymphoprep (Dr. Molter GmbH, Heidelberg). […] A white ring, composed of mononuclear cells, is located between these two phases. The lowermost phase is composed of erythrocytes which are covered with a white layer of PMNL. The uppermost phase, and also the Lymphoprep and the white ring, were carefully removed using a syringe. The remaining sediment was carefully resuspended in 15 ml of 3% dextran in PM16 (mw: 485,000, Sigma, Deisenhofen). The suspension was then left to stand at room temperature for one hour. During this time, the erythrocytes sedimented while the PMNL remained in the supernatant. The supernatant was removed, diluted with an approximately equal volume of PM16, and centrifuged for 15 minutes at 400×g. Should the PMNL sediment be heavily contaminated with erythrocytes, it is necessary to carry out a hypotonic lysis. To do this, the sediment was resuspended in 750 μl of water. After exactly 15 seconds, the suspension was diluted with approximately 7 ml of PM16 and centrifuged for 10 minutes at 400×g. If necessary, this lysis was repeated once more. Otherwise, the PMNL sediment was resuspended in a suitable medium. 250 μl of PMNL (5·10^6 cells/ml of PBS containing 7.5 mM glucose) were incubated at 37° C. for 20 minutes with 1 μl of test substance. 1 μl of cytochalasin B (5 μg/ml of test mixture) was then added and the mixture was incubated at 37° C. for a further 5 minutes. Following the addition of 1 μl of […] necrosis factor alpha (TNF; 30 ng/ml of test mixture), the incubation was continued for 5 minutes. The release was started using 1 μl of fMLP (10 nmol/l of test mixture). After 60 minutes at 37° C., the reaction was terminated by cooling the samples down to 0° C. The samples were then centrifuged, and the supernatant was removed and frozen down. Cytochalasin B and fMLP were dissolved in DMSO and TNF was diluted with buffer. 50 μl of the supernatant were mixed with 175 μl of buffer (100 mM HEPES, pH 7.5; 500 mM NaCl) in a 96-well microtiter plate. Following the addition of 25 μl of substrate (methoxysuccinyl-[…]-nitroanilide), the extinction of each well was measured at 405 nm after 0, 5, 10, 15, 30 and 60 minutes. […] The interleukin is additionally indicated in test 4.

Experiment [3] has the same test system. As to the kind of experiment: Test 2: Release of oxygen radicals from human PMNL. The conditions noted are these: read-out: Test 2 residual activity (release of oxygen radicals), percent of control. In kind it is cell-based. The method, then: Isolation of polymorphonuclear leucocytes (PMNL) from human peripheral blood for carrying out tests 1 and 2 10 ml of human blood were diluted with 10 ml of HBSS (Serva) and underlaid with 15 ml of Lymphoprep (Dr. Molter GmbH, Heidelberg). The sample was then centrifuged for 25 minutes at 400×g (1600 revolutions per minute, Minifuge 2, Heraeus, Osterode). […] A white ring, composed of mononuclear cells, is located between these two phases. The lowermost phase is composed of erythrocytes which are covered with a white layer of PMNL. The uppermost phase, and also the Lymphoprep and the white ring, were carefully removed using a syringe. The remaining sediment was carefully resuspended in 15 ml of 3% dextran in PM16 (mw: 485,000, Sigma, Deisenhofen). The suspension was then left to stand at room temperature for one hour. During this time, the erythrocytes sedimented while the PMNL remained in the supernatant. The supernatant was removed, diluted with an approximately equal volume of PM16, and centrifuged for 15 minutes at 400×g. Should the PMNL sediment be heavily contaminated with erythrocytes, it is necessary to carry out a hypotonic lysis. To do this, the sediment was resuspended in 750 μl of water. After exactly 15 seconds, the suspension was diluted with approximately 7 ml of PM16 and centrifuged for 10 minutes at 400×g. If necessary, this lysis was repeated once more. Otherwise, the PMNL sediment was resuspended in a suitable medium.
The PMNL were resuspended (5·10^6 cells/ml) in Dulbecco's PBS, supplemented with 7.5 mM glucose. Care must be taken to ensure that the PMNL are free of erythrocytes. 100 μl of PMNL, 700 μl of PBS+glucose and 100 μl of cytochrome C (9.38 mg/ml of PBS+glucose) were mixed in a semi-microcuvette. 100 μl of PMNL, 500 μl of PBS+glucose, 100 μl of cytochalasin B ([…]), 100 μl of TNF (0.05 ng) and 100 μl of cytochrome C (9.38 mg/ml of PBS+glucose) were mixed for the fMLP-induced release of oxygen. Measurements were made in a double-beam photometer meter (Perkin-Elmer 552 S) at a wavelength of 550 nm. The measurement range is 0-1 extinction units. The cuvettes were temperature-equilibrated to 37° C. The reference cuvette additionally contained 10 μl of SOD (6 mg of SOD/ml of PBS+glucose). Following a preincubation of 5 minutes, the reaction is started with 100 μl of inducer. The reaction is started with 1·10^-7 mol of fMLP.
(§1) The values in the table show the concentration of the test substance which was employed in μM and, besides this, the residual activity measured in percent based on the control, which was set to be 100%. The interleukin is additionally indicated in test 4.

In experiment [4] the test system is cyclooxygenase-dependent thrombocyte aggregation. Description: Test 5: Cyclooxygenase-dependent thrombocyte aggregation. In kind it is cell-based, human. To be noted: Homo sapiens, arachidonic acid as inducer, read-out: Test 5 residual activity (cyclooxygenase-dependent thrombocyte aggregation), percent of control. In outline:
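Citrated human platelet-rich plasma was preincubated 10 min at 37 °C with test substance diluted 1:30 in 50 mM Tris-HCl pH 8.0, 90 mM NaCl. Aggregation was triggered with arachidonic acid (5 mg/ml, 20 μl) under 800 rpm stirring in an aggregometer. Values are tested concentration (μM) and residual activity as % of control.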

A further experiment deals with adjuvant/arthritis model. Description: Test 6: antiarthritic effect in the adjuvant/arthritis model. In kind it is in vivo, rat (Wistar-Lewis). The conditions noted are these: Rattus norvegicus, po, 408 h, daily for 17 days, rat, read-out: Test 6 Paw volume (% inhibition).
Experiment [5] relates to tumor cell line 20-10-5S (hybridoma cell line). Description: Test 8: Inhibition of tumor cell proliferation. Format: cell-based. The conditions noted are these: 48 h + 16 h tritiated thymidine incorporation; 20-10-5S cells. Background: Uptake of a labelled nucleoside into DNA is a usual measure of proliferation.
Protocol: The tumor cell line 20-10-5S (hybridoma cell line, supplied by ATCC (American Type Culture Collection)), which produces an antibody against mouse T cells) was used for determining the antiproliferative property of test substances. The cells were cultured, at 37° C. and 5% C2, under serum-free conditions in CG medium (cell-growth medium=Iscove-ATL (+albumin+transferrin+lipids); from Vitromex, Vilshofen). Only cells which were in the logarithmic phase of growth were used for the test mixture. The test substances were pipetted in various concentrations (from 1 to 50 μM), together with 4×10^3 20-10-5S cells, into round-bottomedmicrotiter plates (total volume with medium, 200 μl). After an incubation time of 48 h (37° C. and 5% CO2), 25 μl of tritiated thymidine (=0.25 μCi/test mixture, specific activity, 23 Ci/mM) were added to the plates. During the subsequent 16 h, the radioactively labeled thymidine was incorporated into the DNA of the growing cells. The samples were filtered off with suction on glass fiber filters and the incorporated radioactivity was measured using a β counter (Beta Plate System 1205 from Wallac).
Experiment [6] relates to TNFα release from mononuclear cells. Description: Test 4: cytokine release from LPS-stimulated mononuclear cells, TNFα. In kind it is cell-based. The conditions noted are these: Homo sapiens, read-out: Test 4 residual activity (TNFα release), percent of control. The method, then: (§2) Test 4. Stimulation of the cytokine release
(§3) Isolation of mononuclear cells from human blood
(§4) 10 ml of human blood, stabilized with 1 ml of 3.8% sodium citrate solution, were diluted with 10 ml of PM16 (Serva, Heidelberg) and underlaid with 15 ml of Lymphoprep (Dr. Molter GmbH, Heidelberg). The samples were centrifuged, at room temperature for 40 minutes, at 400×g (1600 rpm, Minifuge 2, Heraeus, Osterode). The mononuclear cells are visible as a white ring at the Lymphoprep/plasma interface. This ring was carefully removed with a syringe, diluted with an equal volume of PM16, and centrifuged for 10 minutes at 400×g. The sediment was washed with approximately 10 ml of RPMI1640 (+300 mg/l L-glutamine, Gibco, Eggenstein) (Wallis, 1986). After the cells had been resuspended in approximately 1 ml of RPMI1640 (+300 mg/l L-glutamine+25 mM HEPES+100 μg/ml streptomycin+100 μg/ml penicillin), the cell density was determined using a Coulter Counter JT (Coulter Diagnostics) and adjusted to 5*10^6 /ml. Typically, the cells are composed of 90% lymphocytes and 10% monocytes.
230 μl of mononuclear cells were incubated, at 37° C.; 5% CO2 for 20-22 hours (5 hours in the case of IL-6), with 10 μl of test substance (10 μM in DMSO/water, 1/10) and 10 μl of lipopolysaccharide (LPS; 500 μg dissolved in 1 ml of DMSO and diluted 1/10 with water prior to beginning the test; from Salmonella abortus equi, Sigma, Deisenhofen). The samples were cooled down to 0° C. in an ice bath and centrifuged in a Sigma centrifuge (2 minutes; 2000 rpm). Aliquots of the supernatant are measured with an ELISA (Biermann, Bad Nauheim). The abbreviation IL stands for interleukin and TNF for tumor necrosis factor alpha.
as §1

For experiment [7], the system named is IL-1α release from mononuclear cells. Description: Test 4: cytokine release from LPS-stimulated mononuclear cells, IL-1α. Format: cell-based. The conditions noted are these: Homo sapiens, read-out: Test 4 residual activity (IL-1α release), percent of control. On the procedure:
as §2, §3, §4
230 μl of mononuclear cells were incubated, at 37° C.; 5% CO2 for 20-22 hours (5 hours in the case of IL-6), with 10 μl of test substance ([…]) and 10 μl of lipopolysaccharide (LPS; 500 μg dissolved in 1 ml of DMSO and diluted 1/10 with water prior to beginning the test; from Salmonella abortus equi, Sigma, Deisenhofen). The samples were cooled down to 0° C. in an ice bath and centrifuged in a Sigma centrifuge (2 minutes; 2000 rpm). Aliquots of the supernatant are measured with an ELISA (Biermann, Bad Nauheim). The abbreviation IL stands for interleukin and TNF for tumor necrosis factor alpha.
as §1

The structures appear in SMILES notation.

Protocol for adjuvant/arthritis model: Male rats of a Wistar-Lewis strain (Mollegaard/Denmark) were used as experimental animals. The body weight is between 160 and 200 g. Subplantar injection of 0.1 ml of Freund's adjuvant (=6 mg of Mycobacterium butyricum suspension, Difco Lab./Detroit, Mich. USA, per ml of heavy white paraffin oil, Merck, Darmstadt) into the root of the tail resulted, on the 10th to 14th day of the experiment, in immunopathological processes and chronic inflammations, particularly in the form of arthritic and periarthritic symptoms, at other sites in the body (secondary lesions). The animals were fed ad libitum with the standard feed Altromin-R, from Altrogge, Lage, and provided with tap water. The animals were given 60 mg of codein per kg as an analgesic from the 14th day to the end of the experiment. The test substances were administered orally as a CMC suspension, in an injection volume of 1 ml/100 g of body weight, on each day (in all for 17 days), beginning on the day of the adjuvant administration. The volumes of each of the hind paws, and the body weight, were measured on the first and on the 18th day of the experiment. Diminution in the increase of paw volume, as compared with the untreated control group, served as the criterion of activity, with the two hind paws being averaged.

What is called ED50 is the dose that gives a 50% effect, or the effect in half of the subjects. Read a high ED50 as a need for a large dose. As a reminder, the IC50 is the point on the concentration scale where inhibition reaches its midpoint. As for `CC(=O)C1CC(c2cc(C(C)(C)C)c(O)c(C(C)(C)C)c2)=NO1` (centres unmarked) [Example 13], the ED50 in experiment [1] is about 50 mg/kg. The activity at 10 µM was determined as 77% in experiment [2], 65% in experiment [3] and 98% in experiment [4]. Further, in experiment [2], the activity at 100 µM stood at 20%. Further, the activity at 25 µM in experiment [3] (25 μM) came out at 22%. Also, in the experiment on adjuvant/arthritis model (50 mg/kg orally), the inhibition in vivo at 50 mg/kg stood at 84%. Moreover, the IC50 in experiment [5] stood at 6.1 µM.
Consider `CC(C)(C)c1cc(-c2cc(CCCO)on2)cc(C(C)(C)C)c1O` [Example 26], for which the activity at 10 µM was 88% in experiment [6] and 94% in experiment [4]. In experiment [5], the IC50 was under 5 µM.
For the compound `C[C@@H](O)[C@@H]1CC(c2cc(C(C)(C)C)c(O)c(C(C)(C)C)c2)=NO1` (relative stereo) [Example 19], the activity at 10 µM in experiment [2] is 78%; in experiment [3] it was 94%; in experiment [4] it was 100%. Further, the activity at 100 µM in experiment [2] amounted to 20%. Further, the inhibition in vivo at 25 mg/kg in the experiment with adjuvant/arthritis model (25 mg/kg orally) was determined as 85%. The concentration for half-maximal inhibition (IC50) in experiment [5] was under 5 µM.
Consider `CCOC(=O)C(C)(C)OCc1cc(-c2cc(C(C)(C)C)c(O)c(C(C)(C)C)c2)no1` [Example 35], for which, in experiment [4] (100 μM), the activity at 100 µM stood at 94%. Besides, the activity at 10 µM in experiment [7] is 84%.
Consider `CC(O)C1CC(c2cc(C(C)(C)C)c(O)c(C(C)(C)C)c2)=NO1` (centres unmarked) [Example 18], for which, in experiment [7], the activity at 10 µM was 89%. In addition, in experiment [7] (100 μM), the activity at 100 µM was determined as 36%. Further, the concentration for half-maximal inhibition (IC50) in experiment [5] lay in the range of 5 to 10 µM.
Consider `CC(=O)c1cc(-c2cc(C(C)(C)C)c(O)c(C(C)(C)C)c2)no1` [Example 59, 3-(4-Hydroxy-3,5-di-tert-butylphenyl)-5-acetylisoxazole], for which, in experiment [1], the median effective dose (ED50) was 1 to 3 mg/kg. Besides, the activity at 1 µM was found to be 91% in experiment [2] (1 μM) and 135% in experiment [3] (1 μM). Also, the figures for the activity at 10 µM in experiment [2] and in experiment [3] were 61% and 48%, respectively. For the same compound, the activity at 100 µM in experiment [2] amounted to 35%. The IC50 in experiment [5] is 30 µM.
